Source: paper PMC9652263 (Investigational New Drugs, 2022)
Values joined by “and” are separate entries in the source; they are usually repeats but may differ in a detail not shown here. Identical values can stand only once. Like-named read-outs stand apart in the source and are kept apart here.

Experiments:
[1] = tested on: patients with advanced solid tumors; conditions: cited from earlier work
[2] = tested on: patients with advanced solid tumors; assay: Dose escalation and dose-limiting toxicities (phase I, 3+3 design); conditions: combination q3wk; paclitaxel on D1 and D8, lurbinectedin on D1
Method: Furthermore, during dose escalation lurbinectedin was converted to a body surface area (BSA)-based dose.
The DL5 cohort was then expanded, converting lurbinectedin to a BSA-based dose of 2.2 mg/m^2 (calculated by dividing 4.0 mg FD by a BSA of 1.8 m^2).
Patient accrual began in Group A, with dose escalation following a standard 3+3 design. […] During dose escalation in Group A, lurbinectedin was converted to a body surface area (BSA)-based dose (calculated by dividing the allocated FD by a BSA of 1.8 m^2).

[3] = tested on: SCLC, breast, ovarian, endometrial cancer, NSCLC; conditions: cited from earlier work
[4] = for HL, Mean: transformed into the natural logarithm
Method: (§1) Blood and plasma concentration–time profiles were analyzed by standard non-compartmental methods. Individual PK parameters were tabulated and summarized.
(§2) Both drugs were measured by validated liquid extraction methods followed by ultra-performance liquid chromatography tandem mass-spectrometry detection (Dynakin, Derio, Spain).

[5] = clinical; conditions: human, in vivo
Method: as §1, §2

[6] = tested on: patients; conditions: single-agent weekly paclitaxel; cited from earlier work
[7] = Cycle 1, DL1: paclitaxel 60 / lurbinectedin 3.0 mg FD, mean (SD)
[8] = Cycle 1, DL2: paclitaxel 60 / lurbinectedin 4.0 mg FD, mean (SD)
[9] = Cycle 1, DL3: paclitaxel 60 / lurbinectedin 5.0 mg FD, mean (SD)
[10] = Cycle 1, DL4 (MTD): paclitaxel 80 / lurbinectedin 5.0 mg FD, mean (SD)
[11] = Cycle 1, DL5 (RD): paclitaxel 80 / lurbinectedin 2.2 mg/m^2, mean (SD)
[12] = Cycle 1, DL5 (RD): paclitaxel 80 / lurbinectedin 4.0 mg FD, mean (SD)
[13] = Cycle 1, RD + BEV 80 / 2.2 / 15, mean (SD)
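Wherever AUC is given: blood and plasma drug levels in patients quantified by UPLC tandem mass spectrometry, with PK parameters derived by non-compartmental analysis of concentration–time profiles.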
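Wherever CL is given: blood and plasma drug levels in patients quantified by UPLC tandem mass spectrometry, with PK parameters derived by non-compartmental analysis of concentration–time profiles.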
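Wherever Cmax is given: blood and plasma drug levels in patients quantified by UPLC tandem mass spectrometry, with PK parameters derived by non-compartmental analysis of concentration–time profiles.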
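Wherever HL (terminal half-life) is given: blood and plasma drug levels in patients quantified by UPLC tandem mass spectrometry, with PK parameters derived by non-compartmental analysis of concentration–time profiles.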

## COc1ccc2[nH]c3c(c2c1)CCN[C@]31CS[C@@H]2c3c(OC(C)=O)c(C)c4c(c3[C@H](COC1=O)N1[C@@H]2[C@H]2c3c(cc(C)c(OC)c3O)C[C@@H]([C@@H]1O)N2C)OCO4 [Lurbinectedin]
[1]; 1-h i.v. infusion q3wk
  recommended dose (RD), single-agent: 7.0 mg flat dose (FD) and 7 mg flat dose (FD)
[1]; single agent at the RD (7 mg FD)
  median half-life: 70.6 h
[2]
  recommended dose (RD): 2.2 mg/m^2
[3]; monotherapy, BRCA-unselected breast cancer
  response rate: 9%
[3]; monotherapy, ovarian cancer
  response rate: 14–23%
[3]; monotherapy, second-line treatment of patients with SCLC
  response rate: 35%
[4]; Cycle 1, DL1: paclitaxel 60 mg/m^2 D1,D8,D15 / lurbinectedin 3.0 mg FD, mean (SD)
  AUC: 405.9 (129.6) h* μg/L
[4]; [7]
  CL: 7.8 (2.2) L/h
  Cmax: 97.7 (45.5) μg/L
  HL (terminal half-life): 52.8 (3.7) h
  Vss: 299.4 (84.4) L
  Vz: 602.1 (193.0) L
[4]; Cycle 1, DL2: paclitaxel 60 mg/m^2 D1,D8,D15 / lurbinectedin 4.0 mg FD, mean (SD)
  AUC: 357.9 (174.2) h* μg/L
[4]; [8]
  CL: 14.2 (9.4) L/h
  Cmax: 74.0 (18.9) μg/L
  HL (terminal half-life): 82.1 (65.7) h
  Vss: 733.7 (415.1) L
  Vz: 1161 (563.2) L
[4]; Cycle 1, DL3: paclitaxel 60 mg/m^2 D1,D8,D15 / lurbinectedin 5.0 mg FD, mean (SD)
  AUC: 714.0 (416.3) h* μg/L
[4]; [9]
  CL: 8.8 (4.0) L/h
  Cmax: 127.0 (74.0) μg/L
  HL (terminal half-life): 46.6 (15.5) h
  Vss: 343.2 (150.1) L
  Vz: 530.8 (164.6) L
[4]; Cycle 1, DL4 (MTD): paclitaxel 80 mg/m^2 D1,D8 / lurbinectedin 5.0 mg FD, mean (SD)
  AUC: 376.2 (151.4) h* μg/L
[4]; [10]
  CL: 15.2 (6.0) L/h
  Cmax: 109.5 (28.4) μg/L
  HL (terminal half-life): 38.6 (8.3) h
  Vss: 401.8 (99.1) L
  Vz: 806.0 (243.4) L
[4]; Cycle 1, DL5 (RD): paclitaxel 80 mg/m^2 D1,D8 / lurbinectedin 2.2 mg/m^2, mean (SD)
  AUC: 440.5 (224.4) h* μg/L
[4]; Cycle 1, DL5 (RD): paclitaxel 80 mg/m^2 D1,D8 / lurbinectedin 4.0 mg FD, mean (SD)
  AUC: 436.2 (238.3) h* μg/L
[4]; [11]
  CL: 11.1 (5.3) L/h
  Cmax: 96.3 (34.7) μg/L
  HL (terminal half-life): 49.3 (22.5) h
  Vss: 454.9 (222.6) L
  Vz: 727.6 (346.9) L
[4]; [12]
  CL: 12.0 (7.0) L/h
  Cmax: 83.9 (42.5) μg/L
  HL (terminal half-life): 47.1 (23.0) h
  Vss: 420.9 (182.7) L
  Vz: 701.8 (268.9) L
[4]; [13]
  CL: 13.8 (6.5) L/h
  Cmax: 88.7 (28.9) μg/L
  HL (terminal half-life): 40.0 (15.7) h
  Vss: 408.5 (161.7) L
  Vz: 724.9 (340.5) L
[4]; Cycle 1, RD + BEV: paclitaxel 80 mg/m^2 / lurbinectedin 2.2 mg/m^2 / BEV 15 mg/kg, mean (SD)
  AUC: 351.2 (175.9) h* μg/L
[4]; RD in Group A vs Group B, Cycle 1
  differences in PK parameters in the presence or absence of BEV: No statistically significant differences
[4]; all dose levels
  variability of total clearance (CL): Wide variability
[4]; dose levels 3.0–5.0 mg FD in combination with paclitaxel
  dose linearity of maximum concentration (Cmax) and AUC: No dose linearity could be established
[4]; paclitaxel with lurbinectedin
  potential drug-drug interaction: CL of each drug at the high AUC of the other drug: slight decrease
[4]; Cycle 1, Group A at the RD (31 patients)
  HL, Mean: 3.802
[4]; Cycle 1, Group B with BEV (12 patients)
  HL, Mean: 3.603

## CC(=O)O[C@H]1C(=O)[C@@]2(C)[C@H]([C@H](OC(=O)c3ccccc3)[C@]3(O)C[C@H](OC(=O)[C@H](O)[C@@H](NC(=O)c4ccccc4)c4ccccc4)C(C)=C1C3(C)C)[C@]1(OC(C)=O)CO[C@@H]1C[C@@H]2O [Paclitaxel]
[5]; 2.2 mg/m2, CL
  clearance: 525 mL/min
[5]; 2.2 mg/m2, Vss
  Vd: 324 L
[5]; 2.2 mg/m2, Vz
  Vd: 662 L
[5]; 3 mg, CL
  clearance: 437 mL/min
[5]; 3 mg
  Cmax: 2370 ng/mL
[5]; 3 mg, Vss
  Vd: 315 L
[5]; 3 mg, Vz
  Vd: 689 L
[5]; 4 mg
  half-life: 1750 min
  Cmax: 1500 ng/mL
[5]; 4 mg, CL
  clearance: 487 mL/min
[5]; 4 mg, Vss
  Vd: 577 L
[5]; 4 mg, Vz
  Vd: 934 L
[5]; 5 mg, CL
  clearance: 575 mL/min
[5]; 5 mg
  Cmax: 1980 ng/mL
[5]; 5 mg, Vss
  Vd: 430 L
[5]; 5 mg, Vz
  Vd: 858 L
[6]
  incidence of peripheral neuropathy, grade 3/4: 3–21%
[3]; single-agent weekly 80 mg/m^2/week, metastatic breast cancer
  response rate: 22–42%
[3]; single-agent weekly 80 mg/m^2/week, relapsed ovarian cancer
  response rate: 21–60%
[3]; single-agent weekly 80 mg/m^2/week, relapsed/refractory SCLC
  response rate: 20–27%
[4]; human, in vivo
  potential drug-drug interaction: CL of each drug at the high AUC of the other drug: slight decrease
  variability of total clearance (CL): Wide variability
[4]; human, in vivo, 2.2 mg/m2
  Cmax: 3004 (971.4) μg/L
[4]; human, in vivo, 4 mg
  CL: 31.1 (6.2) L/h
  Cmax: 2908 (482.2) μg/L
  Vss: 315.3 (89.7) L
  Vz: 639.9 (128.6) L
[4]; human, in vivo, 5 mg
  CL: 30.2 (8.6) L/h
  Cmax: 3122 (1420) μg/L
  Vss: 323.2 (266.8) L
  Vz: 627.5 (185.2) L

## Bevacizumab
[3]; recurrent ovarian cancer and previously untreated NSCLC
  improvement in ORR with the addition of BEV to chemotherapy vs. chemotherapy alone: 15–20%
